Experimental data reported in patent US7910599B2 (priority 2005, dated 2011).
“Also recorded” adds a separate entry of the source.

Assays:
[1] = continual administration; cited from earlier work
humans [2] = conditions: cited from earlier work
rats = assay: Rats kept continually on antagonist in the food, alcohol drinking; format: in vivo, rat; conditions: large doses in the food, continual presence; less reduction than selective extinction with naloxone
alcoholics = conditions: cited from earlier work
[3] = tested on: patients suffering from binge eating; conditions: 50 mg once, twice or 3 times daily; cited from earlier work
humans [4] = conditions: highly palatable versus less pleasant tasting foods; cited from earlier work
Male Wistar rats = assay: Selective extinction in alcohol-experienced rats: naloxone before alcohol access, saccharin access without injection; format: in vivo, rat
Description: The example included here is a prior preclinical experiment in which the alternative opioidergically-reinforced behavior was saccharin drinking. Alcohol experienced rats had continual access to food and water. Alcohol solution was available for only an hour a day for 2 to 4 days. On the next day or two, saccharin solution instead was available. Naloxone (or saline for the control group) was injected prior to the alcohol session.
Male Wistar rats (n=26) were individually housed with daily access to 10% ethanol, with food and water always present. After 2 months prior experience, the rats were switched to having 2-4 alcohol-access days interspersed with 1 or 2 days when saccharin solution (1 g/l) was available for 1 hr. […] No injections were made prior to saccharin access.

humans [5] = conditions: acute study; cited from earlier work
[6] = subcutaneous naloxone prior to alcohol access, dose reduced from 10.000 to 0.005 mg/kg

| SMILES | side-effects [1] | preference for saccharin (humans [2]) | alcohol drinking (rats) | efficacy in alcoholism when given during abstinence (alcoholics; naltrexone given during abstinence) | efficacy in alcoholism when paired with alcohol drinking (alcoholics; naltrexone paired with drinking (extinction method)) | maximum days per week (naltrexone and drinking) reported by complying patients (alcoholics; three-year follow-up, mean ± SEM) | treatment of binge eating versus placebo [3] | food intake (humans [4]) | saccharin drinking in the same animals (Male Wistar rats; first three weeks) | alcohol drinking (Male Wistar rats; first three weeks, naloxone doses in the range previously found effective) | alcohol drinking in comparison with saline controls and own prior levels (Male Wistar rats; subcutaneous naloxone prior to alcohol access (10% ethanol), dose progressively reduced from 10.000 to 0.005 mg/kg) | time alcohol drinking continued to be significantly reduced (Male Wistar rats; [6]) | time alcohol drinking was reduced to nearly zero for most rats (Male Wistar rats; [6]) | size of an eating binge (humans [5]) |
| --- | --- | --- | --- | --- | --- | --- | --- | --- | --- | --- | --- | --- | --- | --- |
| O=C1CC[C@@]2(O)[C@H]3Cc4ccc(O)c5c4[C@@]2(CCN3CC2CC2)[C@H]1O5 [naltrexone] | liver toxicity | reduces | significantly lowered | tended to be worse than placebo | effective | 1.5±0.4 days per week | not significantly better than placebo | – | – | – | – | – | – | – |
| C=C1CC[C@@]2(O)[C@H]3Cc4ccc(O)c5c4[C@@]2(CCN3CC2CC2)[C@H]1O5 [nalmefene] | – | – | significantly lowered | – | – | – | – | suppresses intake of highly palatable foods but not that of less pleasant tasting ones | – | – | – | – | – | – |
| C=CCN1CC[C@]23c4c5ccc(O)c4O[C@H]2C(=O)CC[C@@]3(O)[C@H]1C5 [naloxone] | – | – | – | – | – | – | – | – | significantly increased | practically abolished | strongly reduced; also recorded: significantly reduced | 8 weeks | 6 weeks | significantly reduced |
